Assay results taken from the NIST ThermoML archive (doi:10.1021/je6005778).
Numbers after ± are expanded uncertainties.

Conditions: Liquid; for speed of sound: Pulse-echo method

CCC(O)CO (stereo unspecified) [1,2-butanediol] showed a mass density (288.15 K, 101.33 kPa) of 1005.78 ± 0.34 kg/m3, a speed of sound (292.87 K, 45600 kPa) of 1634.3 ± 2.5 m/s and a speed of sound (292.87 K, 60790 kPa) of 1681.5 ± 2.5 m/s. For the same compound, the speed of sound (292.87 K, 75990 kPa) was 1726 ± 2.5 m/s, the speed of sound (292.87 K, 91190 kPa) was 1768 ± 2.5 m/s and the speed of sound (292.87 K, 101320 kPa) was 1794.7 ± 2.5 m/s. The speed of sound (292.88 K, 15200 kPa) was 1528.2 ± 2.6 m/s, the speed of sound (292.88 K, 30400 kPa) was 1583.2 ± 2.6 m/s and the speed of sound (292.93 K, 101.33 kPa) was 1466.5 ± 1.6 m/s. For the same compound, the mass density (293.15 K, 101.33 kPa) was 1002.12 ± 0.33 kg/m3, the speed of sound (298.1 K, 101.33 kPa) was 1451.3 ± 1.6 m/s and the mass density (298.15 K, 101.33 kPa) was 998.408 ± 0.33 kg/m3. For the same compound, the speed of sound (298.15 K, 15200 kPa) was 1513.5 ± 2.6 m/s, the speed of sound (298.15 K, 30400 kPa) was 1569.2 ± 2.6 m/s and the speed of sound (298.15 K, 45600 kPa) was 1621.1 ± 2.6 m/s. It also gave a speed of sound (298.15 K, 60790 kPa) of 1668.8 ± 2.5 m/s, a speed of sound (298.15 K, 75990 kPa) of 1713.8 ± 2.5 m/s and a speed of sound (298.15 K, 91190 kPa) of 1755.9 ± 2.5 m/s. It also gave a speed of sound (298.15 K, 101320 kPa) of 1783 ± 2.5 m/s, a speed of sound (303.13 K, 15200 kPa) of 1500 ± 2.6 m/s and a speed of sound (303.13 K, 30400 kPa) of 1556.4 ± 2.6 m/s. For the same compound, the speed of sound (303.13 K, 45600 kPa) was 1608.8 ± 2.6 m/s, the speed of sound (303.13 K, 60790 kPa) was 1657.1 ± 2.5 m/s and the speed of sound (303.13 K, 75990 kPa) was 1702.2 ± 2.5 m/s. It also gave a speed of sound (303.13 K, 91190 kPa) of 1745 ± 2.5 m/s, a speed of sound (303.13 K, 101320 kPa) of 1772.3 ± 2.5 m/s and a mass density (303.15 K, 101.33 kPa) of 994.659 ± 0.33 kg/m3. It also gave a speed of sound (303.18 K, 101.33 kPa) of 1436.5 ± 1.6 m/s, a speed of sound (308.12 K, 60790 kPa) of 1645.5 ± 2.5 m/s and a speed of sound (308.12 K, 91190 kPa) of 1734.2 ± 2.5 m/s. For the same compound, the speed of sound (308.13 K, 15200 kPa) was 1486.6 ± 2.6 m/s, the speed of sound (308.13 K, 30400 kPa) was 1543.5 ± 2.6 m/s and the speed of sound (308.13 K, 45600 kPa) was 1596.5 ± 2.6 m/s. It also gave a speed of sound (308.13 K, 75990 kPa) of 1691 ± 2.5 m/s, a speed of sound (308.13 K, 101320 kPa) of 1761.7 ± 2.5 m/s and a mass density (308.15 K, 101.33 kPa) of 990.872 ± 0.33 kg/m3. The speed of sound (308.17 K, 101.33 kPa) was 1421.8 ± 1.6 m/s, the mass density (313.15 K, 101.33 kPa) was 987.048 ± 0.34 kg/m3 and the speed of sound (313.3 K, 30400 kPa) was 1530.3 ± 2.6 m/s. The speed of sound (313.3 K, 45600 kPa) was 1583.7 ± 2.6 m/s, the speed of sound (313.3 K, 60790 kPa) was 1633.4 ± 2.5 m/s and the speed of sound (313.3 K, 75990 kPa) was 1679.3 ± 2.5 m/s. The speed of sound (313.3 K, 91190 kPa) was 1723 ± 2.5 m/s, the speed of sound (313.3 K, 101320 kPa) was 1750.4 ± 2.5 m/s and the speed of sound (313.31 K, 15200 kPa) was 1472.8 ± 2.6 m/s. The speed of sound (313.35 K, 101.33 kPa) was 1406.7 ± 1.6 m/s, the mass density (318.15 K, 101.33 kPa) was 983.185 ± 0.34 kg/m3 and the speed of sound (318.15 K, 101.33 kPa) was 1392.6 ± 1.6 m/s. The mass density (323.15 K, 101.33 kPa) was 979.285 ± 0.35 kg/m3, the mass density (328.15 K, 101.33 kPa) was 975.354 ± 0.35 kg/m3 and the mass density (333.15 K, 101.33 kPa) was 971.386 ± 0.36 kg/m3. It also gave a mass density (338.16 K, 101.33 kPa) of 967.378 ± 0.36 kg/m3, a mass density (343.15 K, 101.33 kPa) of 963.333 ± 0.37 kg/m3 and a mass density (348.16 K, 101.33 kPa) of 959.256 ± 0.37 kg/m3. The mass density (353.15 K, 101.33 kPa) was 955.143 ± 0.38 kg/m3, the mass density (358.15 K, 101.33 kPa) was 950.989 ± 0.39 kg/m3 and the mass density (363.15 K, 101.33 kPa) was 946.804 ± 0.39 kg/m3.

In the case of CC(O)CCO (stereo unspecified) [1,3-butanediol], the mass density (288.15 K, 101.33 kPa) is reported as 1006.75 ± 0.2 kg/m3, the speed of sound (292.86 K, 45590 kPa) is reported as 1686.5 ± 2.4 m/s and the speed of sound (292.86 K, 75990 kPa) is reported as 1770.1 ± 2.3 m/s. For the same compound, the speed of sound (292.86 K, 91180 kPa) was 1808.7 ± 2.3 m/s, the speed of sound (292.86 K, 101320 kPa) was 1833.6 ± 2.3 m/s and the speed of sound (292.87 K, 15200 kPa) was 1592.1 ± 2.4 m/s. The speed of sound (292.87 K, 30390 kPa) was 1641 ± 2.4 m/s, the speed of sound (292.87 K, 60790 kPa) was 1729.5 ± 2.4 m/s and the speed of sound (292.92 K, 101.33 kPa) was 1537.7 ± 1.3 m/s. It also gave a mass density (293.15 K, 101.33 kPa) of 1003.52 ± 0.19 kg/m3, a mass density (298.15 K, 101.33 kPa) of 1000.23 ± 0.19 kg/m3 and a speed of sound (298.15 K, 15200 kPa) of 1578.4 ± 2.4 m/s. It also gave a speed of sound (298.15 K, 30390 kPa) of 1628 ± 2.4 m/s, a speed of sound (298.15 K, 45590 kPa) of 1673.8 ± 2.4 m/s and a speed of sound (298.15 K, 60790 kPa) of 1717.4 ± 2.4 m/s. The speed of sound (298.15 K, 75990 kPa) was 1758.3 ± 2.4 m/s, the speed of sound (298.15 K, 91180 kPa) was 1797.3 ± 2.3 m/s and the speed of sound (298.15 K, 101320 kPa) was 1822.1 ± 2.3 m/s. The speed of sound (298.2 K, 101.33 kPa) was 1523.3 ± 1.3 m/s, the speed of sound (303.13 K, 15200 kPa) was 1565.3 ± 2.4 m/s and the speed of sound (303.13 K, 30390 kPa) was 1615.9 ± 2.4 m/s. For the same compound, the speed of sound (303.13 K, 45590 kPa) was 1662.2 ± 2.4 m/s, the speed of sound (303.13 K, 60790 kPa) was 1706 ± 2.4 m/s and the speed of sound (303.13 K, 75990 kPa) was 1747.3 ± 2.4 m/s. It also gave a speed of sound (303.13 K, 91180 kPa) of 1786.7 ± 2.3 m/s, a speed of sound (303.13 K, 101320 kPa) of 1811.6 ± 2.3 m/s and a mass density (303.15 K, 101.33 kPa) of 996.895 ± 0.19 kg/m3. For the same compound, the speed of sound (303.17 K, 101.33 kPa) was 1509.7 ± 1.3 m/s, the speed of sound (308.11 K, 101320 kPa) was 1801.7 ± 2.3 m/s and the speed of sound (308.12 K, 45590 kPa) was 1650.6 ± 2.4 m/s. It also gave a speed of sound (308.12 K, 75990 kPa) of 1736.7 ± 2.4 m/s, a speed of sound (308.13 K, 15200 kPa) of 1552.4 ± 2.4 m/s and a speed of sound (308.13 K, 30390 kPa) of 1603.5 ± 2.4 m/s. It also gave a speed of sound (308.13 K, 60790 kPa) of 1694.6 ± 2.4 m/s, a speed of sound (308.13 K, 91180 kPa) of 1776.3 ± 2.3 m/s and a mass density (308.15 K, 101.33 kPa) of 993.524 ± 0.2 kg/m3. The speed of sound (308.16 K, 101.33 kPa) was 1496 ± 1.3 m/s, the speed of sound (313.11 K, 15200 kPa) was 1539.6 ± 2.4 m/s and the speed of sound (313.11 K, 30390 kPa) was 1591.2 ± 2.4 m/s. It also gave a speed of sound (313.11 K, 45590 kPa) of 1639.1 ± 2.4 m/s, a speed of sound (313.11 K, 60790 kPa) of 1683.6 ± 2.4 m/s and a speed of sound (313.11 K, 75990 kPa) of 1725.9 ± 2.4 m/s. It also gave a speed of sound (313.11 K, 91180 kPa) of 1765.9 ± 2.3 m/s, a speed of sound (313.11 K, 101320 kPa) of 1791.5 ± 2.3 m/s and a speed of sound (313.14 K, 101.33 kPa) of 1482.3 ± 1.3 m/s. It also gave a mass density (313.15 K, 101.33 kPa) of 990.116 ± 0.2 kg/m3, a mass density (318.16 K, 101.33 kPa) of 986.665 ± 0.2 kg/m3 and a speed of sound (318.29 K, 15200 kPa) of 1526.2 ± 2.4 m/s. The speed of sound (318.29 K, 30390 kPa) was 1578.4 ± 2.4 m/s, the speed of sound (318.29 K, 45590 kPa) was 1627 ± 2.4 m/s and the speed of sound (318.29 K, 60790 kPa) was 1672 ± 2.4 m/s. For the same compound, the speed of sound (318.29 K, 75990 kPa) was 1714.8 ± 2.4 m/s, the speed of sound (318.29 K, 91180 kPa) was 1755.2 ± 2.3 m/s and the speed of sound (318.29 K, 101320 kPa) was 1781.1 ± 2.3 m/s. For the same compound, the speed of sound (318.32 K, 101.33 kPa) was 1467.9 ± 1.3 m/s, the mass density (323.15 K, 101.33 kPa) was 983.181 ± 0.21 kg/m3 and the mass density (328.16 K, 101.33 kPa) was 979.654 ± 0.21 kg/m3. The mass density (333.16 K, 101.33 kPa) was 976.087 ± 0.22 kg/m3, the mass density (338.15 K, 101.33 kPa) was 972.476 ± 0.22 kg/m3 and the mass density (343.15 K, 101.33 kPa) was 968.825 ± 0.23 kg/m3. For the same compound, the mass density (348.16 K, 101.33 kPa) was 965.14 ± 0.23 kg/m3, the mass density (353.15 K, 101.33 kPa) was 961.411 ± 0.24 kg/m3 and the mass density (358.15 K, 101.33 kPa) was 957.637 ± 0.24 kg/m3. It also gave a mass density (363.15 K, 101.33 kPa) of 953.825 ± 0.25 kg/m3.
